What was measured:
[1] = administered orally; cited from earlier work
[2] = Stability studies comparing phosphoric acid with citric acid and antioxidants/stabilizers (films stored at 50 C); conditions: compared with film made with only phosphoric acid, 50 C. for two weeks

Compound | drug absorbed into the bloodstream [1] | time of maximum plasma concentration [1] | degradation products / impurity profile of psilocybin film with stabilizer or acid [2] | degradation products / impurity profile of psilocybin film with stabilizer or acid ([2]; listed as copper)
CN(C)CCc1c[nH]c2cccc(OP(=O)(O)O)c12 [psilocybin] | about 50% | approximately 80 minutes |  | 
[Cl][Cu][Cl] [copper chloride, Copper (II) chloride] |  |  | no effect | promoting the degradation
vitamin E |  |  | promoting the degradation | 
Cc1cc(C(C)(C)C)c(O)c(C(C)(C)C)c1 [BHT] |  |  | promoting the degradation | 
